The results in this text go back to ChEMBL document CHEMBL3991601, “The target landscape of clinical kinase drugs” (Science, 2017).

Experiment [1] deals with Bone morphogenetic protein receptor type-1A (Homo sapiens, UniProt P36894).
The target of experiment [2] is T1, Ferrochelatase, mitochondrial (Homo sapiens, UniProt P22830).
T1 sequence (P22830 whole entry): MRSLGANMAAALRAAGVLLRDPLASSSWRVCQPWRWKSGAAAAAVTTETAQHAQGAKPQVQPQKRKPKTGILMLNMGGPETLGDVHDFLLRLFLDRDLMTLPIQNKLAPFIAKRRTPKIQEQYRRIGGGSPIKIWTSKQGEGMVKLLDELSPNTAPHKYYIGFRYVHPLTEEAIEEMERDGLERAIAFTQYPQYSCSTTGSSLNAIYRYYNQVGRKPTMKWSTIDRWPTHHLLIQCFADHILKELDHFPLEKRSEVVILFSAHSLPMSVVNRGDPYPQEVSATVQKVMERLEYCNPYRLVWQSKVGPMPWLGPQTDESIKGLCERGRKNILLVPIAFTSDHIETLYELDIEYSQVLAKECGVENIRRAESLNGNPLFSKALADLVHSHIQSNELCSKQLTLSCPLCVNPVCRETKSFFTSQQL

In another experiment the target is T2, Glycine--tRNA ligase (Homo sapiens, UniProt P41250).
T2 sequence (P41250 whole entry): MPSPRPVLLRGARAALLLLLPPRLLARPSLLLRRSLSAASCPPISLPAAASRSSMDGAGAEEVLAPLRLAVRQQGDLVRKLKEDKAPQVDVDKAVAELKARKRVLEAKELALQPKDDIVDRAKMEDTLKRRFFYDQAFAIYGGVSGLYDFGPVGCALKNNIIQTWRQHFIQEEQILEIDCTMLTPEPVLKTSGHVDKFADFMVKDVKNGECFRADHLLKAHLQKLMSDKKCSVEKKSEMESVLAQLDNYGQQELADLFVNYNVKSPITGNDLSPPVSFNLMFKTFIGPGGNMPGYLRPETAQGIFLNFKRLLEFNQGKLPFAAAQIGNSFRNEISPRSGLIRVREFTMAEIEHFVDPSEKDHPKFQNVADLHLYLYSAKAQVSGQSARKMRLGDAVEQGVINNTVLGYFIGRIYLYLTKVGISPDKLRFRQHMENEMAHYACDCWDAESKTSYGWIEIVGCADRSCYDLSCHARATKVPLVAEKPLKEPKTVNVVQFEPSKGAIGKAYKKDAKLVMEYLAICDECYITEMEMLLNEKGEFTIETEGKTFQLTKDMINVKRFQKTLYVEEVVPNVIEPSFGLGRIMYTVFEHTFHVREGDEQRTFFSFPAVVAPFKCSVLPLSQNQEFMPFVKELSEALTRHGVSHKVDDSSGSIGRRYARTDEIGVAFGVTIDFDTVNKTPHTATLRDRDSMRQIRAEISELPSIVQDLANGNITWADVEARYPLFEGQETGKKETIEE

Experiment [3] has as its target Insulin-like growth factor 1 receptor (Homo sapiens, UniProt P08069).
The target of the next experiment is LIM domain kinase 2 (Homo sapiens, UniProt P53671).
Experiment [4] has as its target Mitogen-activated protein kinase kinase kinase 1 (Homo sapiens, UniProt Q13233).
The target of a further experiment is T3, Rab-like protein 3 (Homo sapiens, UniProt Q5HYI8).
T3 sequence (Q5HYI8 whole entry): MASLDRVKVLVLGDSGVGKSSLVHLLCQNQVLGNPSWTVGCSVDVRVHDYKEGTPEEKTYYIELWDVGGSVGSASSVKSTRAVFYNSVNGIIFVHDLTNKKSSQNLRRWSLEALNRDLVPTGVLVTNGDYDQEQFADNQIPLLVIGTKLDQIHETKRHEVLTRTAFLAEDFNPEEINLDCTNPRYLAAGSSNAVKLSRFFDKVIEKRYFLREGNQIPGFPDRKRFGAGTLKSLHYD

Experiment [5] concerns the target Rho-associated protein kinase 2 (Homo sapiens, UniProt O75116).
For experiment [6], the target named is Serine/threonine-protein kinase SIK3 (Homo sapiens, UniProt Q9Y2K2).
Experiment [7] has as its target T4, Exosome RNA helicase MTR4 (Homo sapiens, UniProt P42285).
T4 sequence (P42285 whole entry): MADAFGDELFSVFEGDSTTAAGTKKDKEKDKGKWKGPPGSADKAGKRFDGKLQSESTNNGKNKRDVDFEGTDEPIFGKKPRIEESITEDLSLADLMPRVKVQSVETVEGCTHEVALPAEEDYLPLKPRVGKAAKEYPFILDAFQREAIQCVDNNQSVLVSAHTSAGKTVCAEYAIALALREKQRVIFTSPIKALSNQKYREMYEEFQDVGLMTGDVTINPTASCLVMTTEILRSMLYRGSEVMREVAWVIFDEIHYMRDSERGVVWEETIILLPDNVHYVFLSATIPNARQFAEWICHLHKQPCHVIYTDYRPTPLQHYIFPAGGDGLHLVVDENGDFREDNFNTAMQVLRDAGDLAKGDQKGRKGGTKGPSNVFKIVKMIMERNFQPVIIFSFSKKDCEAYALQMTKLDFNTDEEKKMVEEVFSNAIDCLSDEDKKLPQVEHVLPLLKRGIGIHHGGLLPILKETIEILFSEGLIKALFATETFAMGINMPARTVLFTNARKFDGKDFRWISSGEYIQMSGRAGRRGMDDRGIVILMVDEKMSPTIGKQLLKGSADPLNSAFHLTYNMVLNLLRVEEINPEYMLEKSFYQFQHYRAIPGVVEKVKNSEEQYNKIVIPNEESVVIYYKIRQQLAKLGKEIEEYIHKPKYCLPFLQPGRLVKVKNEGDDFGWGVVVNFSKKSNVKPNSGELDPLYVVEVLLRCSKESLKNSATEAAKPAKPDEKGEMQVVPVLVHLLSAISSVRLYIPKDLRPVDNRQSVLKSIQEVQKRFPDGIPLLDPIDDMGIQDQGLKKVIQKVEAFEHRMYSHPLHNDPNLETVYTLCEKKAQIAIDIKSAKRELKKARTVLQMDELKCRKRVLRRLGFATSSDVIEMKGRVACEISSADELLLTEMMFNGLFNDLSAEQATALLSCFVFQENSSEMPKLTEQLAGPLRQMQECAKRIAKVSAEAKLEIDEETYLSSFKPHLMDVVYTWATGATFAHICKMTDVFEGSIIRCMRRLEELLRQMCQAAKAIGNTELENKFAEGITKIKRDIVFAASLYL

The structures appear in SMILES notation. Active and inactive are the calls of the source.
Also: in the data inactive means no Kd found up to 30 µM.

Chain of LIM domain kinase 2 (P53671 whole entry, the tested form may be a part): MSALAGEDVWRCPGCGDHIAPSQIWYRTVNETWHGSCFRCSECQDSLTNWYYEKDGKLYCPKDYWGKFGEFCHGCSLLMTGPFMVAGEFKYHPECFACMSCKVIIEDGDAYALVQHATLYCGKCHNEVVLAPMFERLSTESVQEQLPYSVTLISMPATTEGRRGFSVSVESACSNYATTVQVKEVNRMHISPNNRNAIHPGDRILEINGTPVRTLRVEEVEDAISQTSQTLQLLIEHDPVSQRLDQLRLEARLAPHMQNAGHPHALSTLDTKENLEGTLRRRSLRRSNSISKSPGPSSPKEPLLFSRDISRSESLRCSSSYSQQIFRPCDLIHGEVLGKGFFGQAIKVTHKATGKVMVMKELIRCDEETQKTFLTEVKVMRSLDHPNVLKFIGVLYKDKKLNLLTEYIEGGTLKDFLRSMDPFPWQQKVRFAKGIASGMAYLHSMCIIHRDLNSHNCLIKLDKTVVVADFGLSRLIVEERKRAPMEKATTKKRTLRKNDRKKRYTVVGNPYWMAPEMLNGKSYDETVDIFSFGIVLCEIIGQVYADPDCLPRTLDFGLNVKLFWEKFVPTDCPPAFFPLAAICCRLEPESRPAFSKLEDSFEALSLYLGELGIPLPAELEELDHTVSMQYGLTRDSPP
Chain of Bone morphogenetic protein receptor type-1A (P36894 whole entry): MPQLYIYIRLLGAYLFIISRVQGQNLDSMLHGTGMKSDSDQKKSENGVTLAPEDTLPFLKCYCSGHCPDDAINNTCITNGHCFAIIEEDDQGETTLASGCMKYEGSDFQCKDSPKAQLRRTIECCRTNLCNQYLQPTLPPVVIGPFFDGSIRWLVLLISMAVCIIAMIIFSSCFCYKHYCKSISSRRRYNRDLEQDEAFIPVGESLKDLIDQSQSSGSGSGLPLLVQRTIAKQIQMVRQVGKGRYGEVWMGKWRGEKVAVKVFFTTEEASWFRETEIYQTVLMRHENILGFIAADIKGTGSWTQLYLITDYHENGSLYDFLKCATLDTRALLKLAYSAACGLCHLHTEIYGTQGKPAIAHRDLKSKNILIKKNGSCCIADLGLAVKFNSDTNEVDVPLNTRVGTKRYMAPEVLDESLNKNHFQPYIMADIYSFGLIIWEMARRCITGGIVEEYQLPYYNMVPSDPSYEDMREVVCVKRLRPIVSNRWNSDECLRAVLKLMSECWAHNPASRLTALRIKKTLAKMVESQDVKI
Chain of Serine/threonine-protein kinase SIK3 (Q9Y2K2 whole entry): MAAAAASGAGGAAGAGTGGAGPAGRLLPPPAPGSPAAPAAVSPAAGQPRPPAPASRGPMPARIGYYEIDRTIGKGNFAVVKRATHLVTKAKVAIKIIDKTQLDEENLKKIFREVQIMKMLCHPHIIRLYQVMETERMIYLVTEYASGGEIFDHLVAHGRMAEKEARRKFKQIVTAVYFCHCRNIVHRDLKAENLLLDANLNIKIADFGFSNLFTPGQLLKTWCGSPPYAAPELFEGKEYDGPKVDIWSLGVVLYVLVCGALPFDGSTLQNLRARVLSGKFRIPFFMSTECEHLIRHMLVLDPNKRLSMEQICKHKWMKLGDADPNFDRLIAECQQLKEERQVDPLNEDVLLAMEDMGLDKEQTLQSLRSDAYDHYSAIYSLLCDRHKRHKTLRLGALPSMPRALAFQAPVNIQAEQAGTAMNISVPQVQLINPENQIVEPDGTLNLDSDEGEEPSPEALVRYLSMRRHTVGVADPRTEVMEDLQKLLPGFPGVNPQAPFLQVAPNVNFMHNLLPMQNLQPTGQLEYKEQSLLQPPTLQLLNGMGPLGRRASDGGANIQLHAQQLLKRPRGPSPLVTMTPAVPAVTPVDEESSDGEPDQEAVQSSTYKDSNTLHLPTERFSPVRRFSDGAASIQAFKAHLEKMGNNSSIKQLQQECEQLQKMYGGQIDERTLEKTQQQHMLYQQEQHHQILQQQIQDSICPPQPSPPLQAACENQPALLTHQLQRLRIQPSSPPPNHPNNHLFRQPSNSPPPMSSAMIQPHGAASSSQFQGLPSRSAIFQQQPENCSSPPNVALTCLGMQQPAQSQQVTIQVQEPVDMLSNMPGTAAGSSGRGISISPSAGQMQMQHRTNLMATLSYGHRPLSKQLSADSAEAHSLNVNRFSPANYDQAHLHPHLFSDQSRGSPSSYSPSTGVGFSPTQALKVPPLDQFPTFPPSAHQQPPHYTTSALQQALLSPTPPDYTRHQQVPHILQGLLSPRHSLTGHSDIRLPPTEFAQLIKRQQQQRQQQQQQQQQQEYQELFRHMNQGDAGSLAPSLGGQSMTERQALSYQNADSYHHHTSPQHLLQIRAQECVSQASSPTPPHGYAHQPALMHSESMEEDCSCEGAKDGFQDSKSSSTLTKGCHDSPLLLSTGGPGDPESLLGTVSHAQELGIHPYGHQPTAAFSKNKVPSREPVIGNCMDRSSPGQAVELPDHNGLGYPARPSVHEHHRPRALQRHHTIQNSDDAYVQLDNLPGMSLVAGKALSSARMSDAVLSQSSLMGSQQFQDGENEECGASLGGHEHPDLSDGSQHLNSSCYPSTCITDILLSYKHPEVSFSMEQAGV
Chain of Rho-associated protein kinase 2 (O75116 whole entry): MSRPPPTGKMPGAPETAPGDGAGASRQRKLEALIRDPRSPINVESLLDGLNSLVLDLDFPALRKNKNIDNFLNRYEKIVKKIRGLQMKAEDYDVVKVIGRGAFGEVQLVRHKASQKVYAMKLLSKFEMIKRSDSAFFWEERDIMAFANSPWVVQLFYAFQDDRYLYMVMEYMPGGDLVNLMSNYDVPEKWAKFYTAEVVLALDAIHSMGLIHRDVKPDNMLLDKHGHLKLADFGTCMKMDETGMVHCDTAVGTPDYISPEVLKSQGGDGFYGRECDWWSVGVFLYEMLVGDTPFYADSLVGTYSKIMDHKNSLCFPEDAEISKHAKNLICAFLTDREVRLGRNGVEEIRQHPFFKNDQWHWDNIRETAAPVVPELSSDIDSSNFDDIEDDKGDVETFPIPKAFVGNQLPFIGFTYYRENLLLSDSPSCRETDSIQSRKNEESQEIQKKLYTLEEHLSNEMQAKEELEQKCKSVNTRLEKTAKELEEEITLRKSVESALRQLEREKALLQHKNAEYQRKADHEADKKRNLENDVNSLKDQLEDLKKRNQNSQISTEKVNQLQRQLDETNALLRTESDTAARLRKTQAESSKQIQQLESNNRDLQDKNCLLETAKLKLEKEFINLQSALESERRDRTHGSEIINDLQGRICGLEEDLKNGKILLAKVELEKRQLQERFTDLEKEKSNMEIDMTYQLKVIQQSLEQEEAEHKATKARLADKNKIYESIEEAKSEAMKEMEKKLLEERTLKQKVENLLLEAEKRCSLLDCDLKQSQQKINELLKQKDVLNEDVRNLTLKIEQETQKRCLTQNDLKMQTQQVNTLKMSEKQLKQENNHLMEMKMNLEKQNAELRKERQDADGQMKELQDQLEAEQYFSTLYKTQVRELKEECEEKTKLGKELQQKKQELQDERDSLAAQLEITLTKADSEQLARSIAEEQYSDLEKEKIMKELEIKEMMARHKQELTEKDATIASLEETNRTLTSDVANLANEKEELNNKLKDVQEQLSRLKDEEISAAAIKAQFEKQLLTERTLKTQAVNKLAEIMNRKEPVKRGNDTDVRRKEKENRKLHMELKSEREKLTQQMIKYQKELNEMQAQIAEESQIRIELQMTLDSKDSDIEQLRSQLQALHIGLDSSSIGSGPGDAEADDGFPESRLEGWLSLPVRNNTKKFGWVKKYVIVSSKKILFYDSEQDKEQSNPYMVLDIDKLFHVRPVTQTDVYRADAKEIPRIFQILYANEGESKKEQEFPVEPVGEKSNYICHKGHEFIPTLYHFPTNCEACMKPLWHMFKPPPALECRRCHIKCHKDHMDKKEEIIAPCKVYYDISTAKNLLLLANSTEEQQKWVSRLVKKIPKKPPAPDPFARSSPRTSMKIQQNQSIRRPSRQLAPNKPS

The Kd is the equilibrium constant for the complex coming apart. As to `COc1cc2ncnc(Nc3ccc(F)c(Cl)c3)c2cc1NC(=O)/C=C/CN1CCCCC1` [DACOMITINIB ANHYDROUS], the Kd (in experiment [1]; in experiment [2]; on Glycine--tRNA ligase; in [3]; on LIM domain kinase 2; in experiment [4]) was > 30 µM (inactive) in each case. In addition, the Kd (on Rab-like protein 3; in [5]; in experiment [6]; in experiment [7]) was > 30 µM (inactive) in each case.
`COCCN1CCN(Cc2ccc(-c3n[nH]c4c3C(=O)c3c(NC(=O)NN5CCOCC5)cccc3-4)cc2)CC1` [RGB-286638]: the Kd (in experiment [1]; in [2]; on Glycine--tRNA ligase; in experiment [3]; on LIM domain kinase 2; in experiment [4]) was > 30 µM (inactive) in each case. Moreover, the Kd (at Rab-like protein 3; in experiment [5]; in [6]; in experiment [7]) was > 30 µM (inactive) in each case.
With `O=C(NOC[C@H](O)CO)c1ccc(F)c(F)c1Nc1ccc(I)cc1F` [MIRDAMETINIB], the Kd (in experiment [1]; in experiment [2]; on Glycine--tRNA ligase; in experiment [3]; on LIM domain kinase 2; in [4]) was > 30 µM (inactive) each time. Also, the Kd (at Rab-like protein 3; in experiment [5]; in [6]; in experiment [7]) was > 30 µM (inactive) each time.
`Cn1cc(-c2[nH]c3cc(NC(=O)[C@H](N)C4CCCCC4)cc4c3c2C=NNC4=O)cn1`: the Kd in [1] was 0.814 µM (active); in experiment [2] it was > 30 µM (inactive); at Glycine--tRNA ligase, > 30 µM (inactive); in [3] it was > 30 µM (inactive); on LIM domain kinase 2 it was 0.205 µM (active); at Rab-like protein 3 it was > 30 µM (inactive). In addition, the Kd in [5] is > 30 µM (inactive); in experiment [6] it was 0.386 µM (active); in experiment [7] it was > 30 µM (inactive).
Consider `CC1(COc2ccc3c(c2)ncn3-c2ccc3cccc(N4CCC(N)CC4)c3n2)COC1` [CRENOLANIB], for which the Kd is > 30 µM (inactive) in experiment [1]; 7.35 µM (active) in experiment [2]; > 30 µM (inactive) in experiment [3]; > 30 µM (inactive) on LIM domain kinase 2; > 30 µM (inactive) in experiment [4]; > 30 µM (inactive) on Rab-like protein 3. The results for the Kd in experiment [5], in [6] and in experiment [7] were > 30 µM (inactive), 0.002 µM (active) and > 30 µM (inactive), respectively.
For the molecule `CC(C)CC(=O)Nc1[nH]nc2c1CN(C(=O)C1CCN(C)CC1)C2(C)C` [PHA-793887], the Kd (in experiment [1]; in experiment [2]; on Glycine--tRNA ligase; in experiment [3]; at LIM domain kinase 2; in experiment [4]) was > 30 µM (inactive) in each case. Also, the Kd in experiment [5], in [6] and in experiment [7] was > 30 µM (inactive) in each case.
As to `C=CC(=O)Nc1cc(Nc2nccc(-c3cn(C)c4ccccc34)n2)c(OC)cc1N(C)CCN(C)C` [OSIMERTINIB], the Kd (in experiment [1]; in [2]; at Glycine--tRNA ligase; in [3]; at LIM domain kinase 2; in [4]) was > 30 µM (inactive) in each case. The Kd in [5], in experiment [6] and in experiment [7] was > 30 µM (inactive) in each case.
For `O=S(=O)(c1cccc2cnccc12)N1CCCNCC1` [FASUDIL], the Kd (in experiment [1]; in experiment [2]; on Glycine--tRNA ligase; in experiment [3]; at LIM domain kinase 2; in [4]) was > 30 µM (inactive) in each case. The Kd was 0.943 µM (active) in experiment [5], > 30 µM (inactive) in [6] and > 30 µM (inactive) in experiment [7].
Take `NC[C@@](O)(c1ccc(Cl)cc1)c1ccc(-c2cn[nH]c2)cc1` [AT-13148]: the Kd (in experiment [1]; in experiment [2]; at Glycine--tRNA ligase; in [3]; at LIM domain kinase 2; in experiment [4]) was > 30 µM (inactive) in each case. In addition, the dissociation constant (Kd) in experiment [5] is 0.026 µM (active); in experiment [6] it was > 30 µM (inactive); in experiment [7], > 30 µM (inactive).
For the molecule `CCc1nc(C(N)=O)c(Nc2ccc(N3CCC(N4CCN(C)CC4)CC3)c(OC)c2)nc1NC1CCOCC1` [GILTERITINIB], the Kd was > 30 µM (inactive) in experiment [2]; > 30 µM (inactive) on Glycine--tRNA ligase; > 30 µM (inactive) in [3]; > 30 µM (inactive) on LIM domain kinase 2; > 30 µM (inactive) in experiment [4]; 4.83 µM at Rab-like protein 3. The Kd in experiment [5], in experiment [6] and in experiment [7] was > 30 µM (inactive) each time.
As to `Cc1c(NC(=O)OC[C@@H]2COCCN2)cn2ncnc(Nc3ccc4c(cnn4Cc4cccc(F)c4)c3)c12` [AC-480], the Kd (in experiment [1]; in experiment [2]; on Glycine--tRNA ligase; in experiment [3]; at LIM domain kinase 2; in experiment [4]) was > 30 µM (inactive) in each case. Besides, the Kd in experiment [5], in experiment [6] and in experiment [7] was > 30 µM (inactive) in each case.
